Measurements published in US20100105705A1, “PURINYL DERIVATIVES AND THEIR USE AS POTASSIUM CHANNEL MODULATORS” (NeuroSearch A/S, priority 2007, published 2010).

Test system: not given
Experiment: not given

Cn1cnc2c(Nc3ccc(Cl)cc3)nc(-c3ccccn3)nc21 [Compound 13.1, (4-Chloro-phenyl)-(9-methyl-2-pyridin-2-yl-9H-purin-6-yl)-amine] showed a melting point of 185.4 to 190.5 °C.

Target: T1, hSK3 channels (Homo sapiens, UniProt Q9UGI6)
T1 construct: expressed in transfected cells; host or cells: HEK293
Experiment: Whole-cell patch-clamp recording of ionic current through SK channels, subtype 3, in HEK293 cells expressing hSK3
Format: cell-based
Description: The ionic current through small-conductance Ca^2+-activated K^+ channels (SK channels, subtype 3) is recorded using the whole-cell configuration of the patch-clamp technique in a classic patch-clamp set-up using HEK293 tissue culture cells expressing hSK3 channels as described in e.g. WO 2006/100212.
The SC100 value determined is defined as the Stimulating Concentration required for increasing the baseline current by 100%. The below SC100 values are an indication of the SK3 activating properties of the compounds of the invention.

Compared with Cn1cnc2c(Nc3ccc(Cl)cc3)nc(-n3ccc(C(F)(F)F)n3)nc21 [Compound 6.1, (4-Chloro-phenyl)-[9-methyl-2-(3-trifluoromethyl-pyrazol-1-yl)-9H-purin-6-yl]-amine], Cn1cnc2c(Nc3ccc(Cl)cc3)nc(-n3ccc(N)n3)nc21 [Compound 7.1, [2-(3-Amino-pyrazol-1-yl)-9-methyl-9H-purin-6-yl]-(4-chloro-phenyl)-amine] is 2-fold higher in “SC100 (Stimulating Concentration required for increasing the baseline current by 100%)” value: 0.3 µM for the first, 0.6 µM for the second.

Compared with Cn1cnc2c(Nc3ccc(Cl)cc3)nc(-n3cccn3)nc21 [Compound 6.2, (4-Chloro-phenyl)-(9-methyl-2-pyrazol-1-yl-9H-purin-6-yl)-amine], Cc1ccn(-c2nc(Nc3ccc(Cl)cc3)c3ncn(C)c3n2)n1 [Compound 9.1, (4-Chloro-phenyl)-[9-methyl-2-(3-methyl-pyrazol-1-yl)-9H-purin-6-yl]-amine] is 9-fold lower in “SC100 (Stimulating Concentration required for increasing the baseline current by 100%)” value: 0.18 µM for the first, 0.02 µM for the second.

First: Cn1cnc2c(NC3CCCCC3)nc(-n3cccn3)nc21 [Compound 6.3, Cyclohexyl-(9-methyl-2-pyrazol-1-yl-9H-purin-6-yl)-amine]
Second: Cc1ccn(-c2nc(Nc3ccc(F)cc3)c3ncn(C)c3n2)n1 [Compound 6.6, (4-Fluoro-phenyl)-[9-methyl-2-(3-methyl-pyrazol-1-yl)-9H-purin-6-yl]-amine]
The “SC100 (Stimulating Concentration required for increasing the baseline current by 100%)” value of the first is 35-fold higher: 0.7 µM for the first, 0.02 µM for the second.

Going from Cc1ccn(-c2nc(NCCc3ccccc3)c3ncn(C)c3n2)n1 [Compound 9.3, [9-Methyl-2-(3-methyl-pyrazol-1-yl)-9H-purin-6-yl]-phenethyl-amine] to Cc1c2c(nn1-c1nc(Nc3ccc(F)cc3)c3ncn(C)c3n1)CCC2 [Compound 9.5, (4-Fluoro-phenyl)-[9-methyl-2-(3-methyl-5,6-dihydro-4H-cyclopentapyrazol-2-yl)-9H-purin-6-yl]-amine], the “SC100 (Stimulating Concentration required for increasing the baseline current by 100%)” value falls from 0.6 µM to 0.15 µM (4-fold).
